Measured values as given in PMC10538245, “Fragment merging approach for design, synthesis, and biological assessment of urea/acetyl hydrazide clubbed thienopyrimidine derivatives as GSK-3β inhibitors” (BMC Chemistry, 2023).

Key:
[1] = test system: SF-539; assay: NCI 60-cell line one dose antiproliferative assay; assay type: cell-based; details: Homo sapiens; SF-539, CNS Cancer, 10 µM one dose; read-out: Percent inhibition (cell growth inhibition %)
Text: (§1) The National Cancer Institute "NCI", NIH, Bethesda, Maryland, USA (www.dtp.nci.nih.gov) chose six of the final compounds for the Developmental Therapeutic Program (DTP), codes (5a, 5b, 5c, 5d, 6a, 6b). The NCI screening service will favor compounds with drug-like modes of action based on computer-aided design. Selection The criterion for screening is the possibility of the submitted compounds to provide diversity to the NCI small molecule chemical collection. This screen employs 60 different Leukemia, melanoma, and additional tumor cell lines of the human from brain, kidney, lung, ovary, colon, breast, and prostate cancers. All compounds were picked based on their NCI codes. NSC: D-820696/1, NSC: D-820697/1, NSC: D-820698/1, NSC: D-820699/1, NSC: D-820700/1, NSC: D-820701/1. The initial 10 µM one dose percent inhibition assay was performed on the entire NCI 60 cell panel to examine the different chemotypes of this work. The results are presented as a percentage of cell growth on each of the 60 NCI cell line panels for each of the investigated substances in Table 2.
(§2) The NCI cancer screening procedure includes a comparison of all substances to the sixty NCI cell line panel representing leukemia, NSCLC, cell lines from breast cancer, prostate cancer, melanoma, CNS cancer, renal cancer, ovarian cancer, and colon cancer at a single point of 10 uM. The results of the single-dose screen can be presented using a mean graph.

[2] = test system: NCI-H322M; assay: NCI 60-cell line one dose antiproliferative assay; assay type: cell-based; details: Homo sapiens, Non-Small Cell Lung Cancer, 10 µM one dose, read-out: Percent inhibition (cell growth inhibition %)
Text: as §1, §2

[3] = test system: UO-31; assay: NCI 60-cell line one dose antiproliferative assay; assay type: cell-based; details: Homo sapiens; UO-31, Renal Cancer, 10 µM one dose; read-out: Percent inhibition (cell growth inhibition %)
Text: as §1, §2

[4] = test system: NCI-H23; assay: NCI 60-cell line one dose antiproliferative assay; assay type: cell-based; details: Homo sapiens; NCI-H23, Non-Small Cell Lung Cancer, 10 µM one dose; read-out: Percent inhibition (cell growth inhibition %)
Text: as §1, §2

[5] = test system: NCI-H522; assay: NCI 60-cell line one dose antiproliferative assay; assay type: cell-based; details: Homo sapiens; NCI-H522, Non-Small Cell Lung Cancer, 10 µM one dose; read-out: Percent inhibition (cell growth inhibition %)
Text: as §1, §2

[6] = test system: K-562; assay: NCI 60-cell line one dose antiproliferative assay; assay type: cell-based; details: Homo sapiens, K562; K-562, Leukemia, 10 µM one dose; read-out: Percent inhibition (cell growth inhibition %)
Text: as §1, §2

[7] = test system: A498; assay: NCI 60-cell line one dose antiproliferative assay; assay type: cell-based; details: Homo sapiens; A498, Renal Cancer, 10 µM one dose; read-out: Percent inhibition (cell growth inhibition %)
Text: as §1, §2

[8] = test system: LOX IMVI; assay: NCI 60-cell line one dose antiproliferative assay; assay type: cell-based; details: Homo sapiens, Melanoma, 10 µM one dose, read-out: Percent inhibition (cell growth inhibition %)
Text: as §1, §2

[9] = test system: OVCAR-5; assay: NCI 60-cell line one dose antiproliferative assay; assay type: cell-based; details: Homo sapiens; OVCAR-5, Ovarian Cancer, 10 µM one dose; read-out: Percent inhibition (cell growth inhibition %)
Text: as §1, §2

[10] = test system: U251; assay: NCI 60-cell line one dose antiproliferative assay; assay type: cell-based; details: Homo sapiens, U-251; U251, CNS Cancer, 10 µM one dose; read-out: Percent inhibition (cell growth inhibition %)
Text: as §1, §2

[11] = test system: SN12C; assay: NCI 60-cell line one dose antiproliferative assay; assay type: cell-based; details: Homo sapiens, Renal Cancer, 10 µM one dose, read-out: Percent inhibition (cell growth inhibition %)
Text: as §1, §2

[12] = test system: SF-295; assay: NCI 60-cell line one dose antiproliferative assay; assay type: cell-based; details: Homo sapiens; SF-295, CNS Cancer, 10 µM one dose; read-out: Percent inhibition (cell growth inhibition %)
Text: as §1, §2

[13] = test system: MDA-MB-231/ATCC; assay: NCI 60-cell line one dose antiproliferative assay; assay type: cell-based; details: Homo sapiens, Breast Cancer, 10 µM one dose, read-out: Percent inhibition (cell growth inhibition %)
Text: as §1, §2

[14] = test system: RPMI-8226; assay: NCI 60-cell line one dose antiproliferative assay; assay type: cell-based; details: Homo sapiens; RPMI-8226, Leukemia, 10 µM one dose; read-out: Percent inhibition (cell growth inhibition %)
Text: as §1, §2

[15] = test system: MCF7; assay: NCI 60-cell line one dose antiproliferative assay; assay type: cell-based; details: Homo sapiens; MCF7, Breast Cancer, 10 µM one dose; read-out: Percent inhibition (cell growth inhibition %)
Text: as §1, §2

[16] = test system: PC-3; assay: NCI 60-cell line one dose antiproliferative assay; assay type: cell-based; details: Homo sapiens; PC-3, Prostate Cancer, 10 µM one dose; read-out: Percent inhibition (cell growth inhibition %)
Text: as §1, §2

[17] = test system: HCT-15; assay: NCI 60-cell line one dose antiproliferative assay; assay type: cell-based; details: Homo sapiens; HCT-15, Colon Cancer, 10 µM one dose; read-out: Percent inhibition (cell growth inhibition %)
Text: as §1, §2

[18] = test system: CAKI-1; assay: NCI 60-cell line one dose antiproliferative assay; assay type: cell-based; details: Homo sapiens; CAKI-1, Renal Cancer, 10 µM one dose; read-out: Percent inhibition (cell growth inhibition %)
Text: as §1, §2

[19] = test system: 786–0; assay: NCI 60-cell line one dose antiproliferative assay; assay type: cell-based; details: Homo sapiens; 786–0, Renal Cancer, 10 µM one dose; read-out: Percent inhibition (cell growth inhibition %)
Text: as §1, §2

[20] = test system: UACC-62; assay: NCI 60-cell line one dose antiproliferative assay; assay type: cell-based; details: Homo sapiens; UACC-62, Melanoma, 10 µM one dose; read-out: Percent inhibition (cell growth inhibition %)
Text: as §1, §2

[21] = test system: HCT-116; assay: NCI 60-cell line one dose antiproliferative assay; assay type: cell-based; details: Homo sapiens; HCT-116, Colon Cancer, 10 µM one dose; read-out: Percent inhibition (cell growth inhibition %)
Text: as §1, §2

[22] = test system: SNB-19; assay: NCI 60-cell line one dose antiproliferative assay; assay type: cell-based; details: Homo sapiens; SNB-19, CNS Cancer, 10 µM one dose; read-out: Percent inhibition (cell growth inhibition %)
Text: as §1, §2

[23] = test system: SNB-75; assay: NCI 60-cell line one dose antiproliferative assay; assay type: cell-based; details: Homo sapiens; SNB-75, CNS Cancer, 10 µM one dose; read-out: Percent inhibition (cell growth inhibition %)
Text: as §1, §2

[24] = test system: M14; assay: NCI 60-cell line one dose antiproliferative assay; assay type: cell-based; details: Homo sapiens; M14, Melanoma, 10 µM one dose; read-out: Percent inhibition (cell growth inhibition %)
Text: as §1, §2

[25] = test system: T-47D; assay: NCI 60-cell line one dose antiproliferative assay; assay type: cell-based; details: Homo sapiens, T47D, Breast Cancer, 10 µM one dose, read-out: Percent inhibition (cell growth inhibition %)
Text: as §1, §2

[26] = target: GSK-3β (Homo sapiens, UniProt P49841); assay: GSK-3β kinase inhibition, Z'-LYTE FRET assay (Thermo Fisher SelectScreen); assay type: biochemical; details: for inhibition at 100 µM: 100 μM single dose
Sequence of GSK-3β (P49841 whole entry): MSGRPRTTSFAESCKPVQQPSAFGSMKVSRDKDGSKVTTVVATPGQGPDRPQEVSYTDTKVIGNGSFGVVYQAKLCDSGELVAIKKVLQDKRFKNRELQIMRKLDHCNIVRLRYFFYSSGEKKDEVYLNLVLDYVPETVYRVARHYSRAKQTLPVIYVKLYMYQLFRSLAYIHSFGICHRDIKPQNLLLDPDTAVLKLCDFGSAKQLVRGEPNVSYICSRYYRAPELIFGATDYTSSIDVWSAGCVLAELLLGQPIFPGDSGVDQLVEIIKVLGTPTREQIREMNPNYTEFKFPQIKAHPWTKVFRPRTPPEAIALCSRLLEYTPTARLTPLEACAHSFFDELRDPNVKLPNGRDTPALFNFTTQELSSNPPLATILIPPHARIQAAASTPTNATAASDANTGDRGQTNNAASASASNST

[27] = test system: IGROV1; assay: NCI 60-cell line one dose antiproliferative assay; assay type: cell-based; details: Homo sapiens, IGROV-1; IGROV1, Ovarian Cancer, 10 µM one dose; read-out: Percent inhibition (cell growth inhibition %)
Text: as §1, §2

[28] = test system: MALME-3 M; assay: NCI 60-cell line one dose antiproliferative assay; assay type: cell-based; details: Homo sapiens, Melanoma, 10 µM one dose, read-out: Percent inhibition (cell growth inhibition %)
Text: as §1, §2

[29] = test system: EKVX; assay: NCI 60-cell line one dose antiproliferative assay; assay type: cell-based; details: Homo sapiens, Non-Small Cell Lung Cancer, 10 µM one dose, read-out: Percent inhibition (cell growth inhibition %)
Text: as §1, §2

[30] = test system: HOP-92; assay: NCI 60-cell line one dose antiproliferative assay; assay type: cell-based; details: Homo sapiens; HOP-92, Non-Small Cell Lung Cancer, 10 µM one dose; read-out: Percent inhibition (cell growth inhibition %)
Text: as §1, §2

[31] = test system: SR; assay: NCI 60-cell line one dose antiproliferative assay; assay type: cell-based; details: Homo sapiens, Leukemia, 10 µM one dose, read-out: Percent inhibition (cell growth inhibition %)
Text: as §1, §2

[32] = test system: NCI-H226; assay: NCI 60-cell line one dose antiproliferative assay; assay type: cell-based; details: Homo sapiens; NCI-H226, Non-Small Cell Lung Cancer, 10 µM one dose; read-out: Percent inhibition (cell growth inhibition %)
Text: as §1, §2

[33] = test system: SF-268; assay: NCI 60-cell line one dose antiproliferative assay; assay type: cell-based; details: Homo sapiens; SF-268, CNS Cancer, 10 µM one dose; read-out: Percent inhibition (cell growth inhibition %)
Text: as §1, §2

[34] = test system: A549/ ATCC; assay: NCI 60-cell line one dose antiproliferative assay; assay type: cell-based; details: Homo sapiens, Non-Small Cell Lung Cancer, 10 µM one dose, read-out: Percent inhibition (cell growth inhibition %)
Text: as §1, §2

[35] = test system: HS 578 T; assay: NCI 60-cell line one dose antiproliferative assay; assay type: cell-based; details: Homo sapiens, Breast Cancer, 10 µM one dose, read-out: Percent inhibition (cell growth inhibition %)
Text: as §1, §2

[36] = test system: RXF 393; assay: NCI 60-cell line one dose antiproliferative assay; assay type: cell-based; details: Homo sapiens; RXF 393, Renal Cancer, 10 µM one dose; read-out: Percent inhibition (cell growth inhibition %)
Text: as §1, §2

| SMILES | inhibition at 10 µM [2] [%] | inhibition at 10 µM [3] [%] | inhibition at 10 µM [6] [%] | inhibition at 10 µM [7] [%] | inhibition at 10 µM [8] [%] | inhibition at 10 µM [9] [%] | inhibition at 10 µM [10] [%] | inhibition at 10 µM [11] [%] | inhibition at 10 µM [13] [%] | inhibition at 10 µM [14] [%] | inhibition at 10 µM [15] [%] | inhibition at 10 µM [16] [%] | inhibition at 10 µM [18] [%] | inhibition at 10 µM [19] [%] | inhibition at 10 µM [20] [%] | inhibition at 10 µM [22] [%] | inhibition at 10 µM [23] [%] | inhibition at 10 µM [24] [%] | inhibition at 10 µM [25] [%] | inhibition at 100 µM [26] [%] | also measured |
| --- | --- | --- | --- | --- | --- | --- | --- | --- | --- | --- | --- | --- | --- | --- | --- | --- | --- | --- | --- | --- | --- |
| O=C(COc1ncnc2sc3c(c12)CCCC3)NNC(=S)Nc1ccccc1 [6a] | 0.95 | 14.8 | 7.06 | 47 | 1.31 | 3.88 | 3.33 | 3.79 | 3.71 | 3.86 | 12.3 | 3.65 | 1.14 | 1.23 | 7.2 | 5.27 | 14.6 | 0.96 | 6.64 | 82 | inhibition at 10 µM [1]: 2.42%; inhibition at 10 µM [4]: 3.1%; inhibition at 10 µM [5]: 5.09%; inhibition at 10 µM [12]: 2.64%; inhibition at 10 µM [17]: 0.17%; inhibition at 10 µM [21]: 1.5%; IC50 ([26]; five doses 10 nM–100 µM): 17.3 µM; melting point: 270 to 272 °C |
| O=C(COc1ncnc2sc3c(c12)CCCC3)NN=Cc1ccc(Cl)cc1 [5b, N'-(4-Chlorobenzylidene)-2-((5,6,7,8-tetrahydrobenzo [4,5]thieno[2,3-d]pyrimidin-4-yl)oxy) acetohydrazide] | 0.39 | 23.1 | 0.32 | 11.1 | 7.09 | 8.96 | 15.9 | 2.55 | 7.6 | 2.71 | 11.7 | 3.8 | 4.53 | 2.11 | 4.84 | 9.77 | 18.4 | 2 | 6.96 | 17 | inhibition at 10 µM [27]: 11%; inhibition at 10 µM [28]: 6.05%; inhibition at 10 µM [29]: 3.11%; inhibition at 10 µM [30]: 0.71%; inhibition at 10 µM [31]: 1.63%; inhibition at 10 µM [32]: 2.81%; inhibition at 10 µM [33]: 4.27%; inhibition at 10 µM [34]: 4.36%; inhibition at 10 µM [35]: 7.62%; inhibition at 10 µM [36]: 4.13%; inhibition at 10 µM ([26]; 10 μM): 3%; melting point: 275 to 276 °C |
